Data from PubChem BioAssay AID1963985 (Molecular Pharmacology Branch, DTP, NCI, 2024).

Tested on: 252836-082-R-J2-PDC tumor spheroids, viability
Assay: Anticancer human tumor 252836-082-R-J2-PDC patient-derived head and neck squamous cell carcinoma cell line growth inhibition [PI3K]
Conditions: spheroids with HUVEC and MSC; for IC50: curve of first compound; for viability, T/C: stronger effect = lower value
Procedure, shortened: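 Combination activity was assessed by viability in multicellular tumor spheroids carrying HUVEC and MSC components. Agents were tested with PI3K inhibitors from a Cmax-based top dose (or 10 microM) downward in half-log increments.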
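Note: spheroids exposed to agents for seven days before readout.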
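Throughout, for viability, T/C: percent of vehicle DMSO control viability so 100% = untreated growth.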

Question: `CNC(=O)c1ccc(N2C(=S)N(c3ccc(C#N)c(C(F)(F)F)c3)C(=O)C2(C)C)cc1F` + Cc1nc(NC(=O)N2CCCC2C(N)=O)sc1-c1ccnc(C(C)(C)C(F)(F)F)c1 was tested. Which IC50 (second compound 0.0316 µM) did it give?
Answer: > 10000 nM

Question: What about the IC50 (second compound 0.1 µM) of the same compound?
Answer: > 10000 nM

Question: What about the IC50 (second compound 0.316 µM) of the same compound?
Answer: > 10000 nM

Question: What about the IC50 (second compound 1 µM) of the same compound?
Answer: > 10000 nM

Question: And the IC50 (second compound 3.16 µM)?
Answer: > 10000 nM

Question: What about the IC50 (second compound 10 µM) of the same compound?
Answer: < 31.6 nM

Question: And the viability, T/C (second compound 0.0316 µM, first compound 0.0316 µM)?
Answer: 99.5%

Question: What about the viability, T/C (second compound 0.0316 µM, first compound 0.1 µM) of the same compound?
Answer: 93.2%

Question: What about the viability, T/C (second compound 0.0316 µM, first compound 0.316 µM) of the same compound?
Answer: 103%

Question: And the viability, T/C (second compound 0.0316 µM, first compound 1 µM)?
Answer: 91%

Question: And the viability, T/C (second compound 0.0316 µM, first compound 3.16 µM)?
Answer: 94.7%

Question: And the viability, T/C (second compound 0.0316 µM, first compound 10 µM)?
Answer: 84.8%

Question: What about the viability, T/C (second compound 0.1 µM, first compound 0.0316 µM) of the same compound?
Answer: 87.3%

Question: And the viability, T/C (second compound 0.1 µM, first compound 0.1 µM)?
Answer: 75.7%

Question: What about the viability, T/C (second compound 0.1 µM, first compound 0.316 µM) of the same compound?
Answer: 80.8%

Question: And the viability, T/C (second compound 0.1 µM, first compound 1 µM)?
Answer: 86.5%

Question: And the viability, T/C (second compound 0.1 µM, first compound 3.16 µM)?
Answer: 99.1%

Question: What about the viability, T/C (second compound 0.1 µM, first compound 10 µM) of the same compound?
Answer: 82.1%

Question: What about the viability, T/C (second compound 0.316 µM, first compound 0.0316 µM) of the same compound?
Answer: 68%

Question: What about the viability, T/C (second compound 0.316 µM, first compound 0.1 µM) of the same compound?
Answer: 72%

Question: And the viability, T/C (second compound 0.316 µM, first compound 0.316 µM)?
Answer: 82%

Question: And the viability, T/C (second compound 0.316 µM, first compound 1 µM)?
Answer: 83.5%

Question: And the viability, T/C (second compound 0.316 µM, first compound 3.16 µM)?
Answer: 74.1%

Question: What about the viability, T/C (second compound 0.316 µM, first compound 10 µM) of the same compound?
Answer: 66%

Question: And the viability, T/C (second compound 1 µM, first compound 0.0316 µM)?
Answer: 63%

Question: And the viability, T/C (second compound 1 µM, first compound 0.1 µM)?
Answer: 61.8%

Question: What about the viability, T/C (second compound 1 µM, first compound 0.316 µM) of the same compound?
Answer: 51.7%

Question: What about the viability, T/C (second compound 1 µM, first compound 1 µM) of the same compound?
Answer: 68.3%

Question: What about the viability, T/C (second compound 1 µM, first compound 3.16 µM) of the same compound?
Answer: 60.8%

Question: And the viability, T/C (second compound 1 µM, first compound 10 µM)?
Answer: 54.5%

Question: What about the viability, T/C (second compound 3.16 µM, first compound 0.0316 µM) of the same compound?
Answer: 45.1%

Question: And the viability, T/C (second compound 3.16 µM, first compound 0.1 µM)?
Answer: 55.9%

Question: What about the viability, T/C (second compound 3.16 µM, first compound 0.316 µM) of the same compound?
Answer: 49.5%

Question: And the viability, T/C (second compound 3.16 µM, first compound 1 µM)?
Answer: 49.2%

Question: What about the viability, T/C (second compound 3.16 µM, first compound 3.16 µM) of the same compound?
Answer: 54.3%

Question: And the viability, T/C (second compound 3.16 µM, first compound 10 µM)?
Answer: 46.1%

Question: And the viability, T/C (second compound 10 µM, first compound 0.0316 µM)?
Answer: 27.4%

Question: What about the viability, T/C (second compound 10 µM, first compound 0.1 µM) of the same compound?
Answer: 36.2%

Question: What about the viability, T/C (second compound 10 µM, first compound 0.316 µM) of the same compound?
Answer: 33.9%

Question: What about the viability, T/C (second compound 10 µM, first compound 1 µM) of the same compound?
Answer: 35.4%

Question: What about the viability, T/C (second compound 10 µM, first compound 3.16 µM) of the same compound?
Answer: 40.3%

Question: And the viability, T/C (second compound 10 µM, first compound 10 µM)?
Answer: 35.8%

Question: With `Cn1cnc2c(F)c(Nc3ccc(Br)cc3Cl)c(C(=O)NOCCO)cc21` + Cc1nc(NC(=O)N2CCCC2C(N)=O)sc1-c1ccnc(C(C)(C)C(F)(F)F)c1 as the compound, how does the IC50 (second compound 0.0316 µM) read?
Answer: > 3000 nM

Question: What about the IC50 (second compound 0.1 µM) of the same compound?
Answer: 2410 nM

Question: And the IC50 (second compound 0.316 µM)?
Answer: 1460 nM

Question: What about the IC50 (second compound 1 µM) of the same compound?
Answer: 554 nM

Question: What about the IC50 (second compound 3.16 µM) of the same compound?
Answer: < 9.49 nM

Question: And the IC50 (second compound 10 µM)?
Answer: < 9.49 nM

Question: What about the viability, T/C (second compound 0.0316 µM, first compound 0.00949 µM) of the same compound?
Answer: 93%

Question: What about the viability, T/C (second compound 0.0316 µM, first compound 0.03 µM) of the same compound?
Answer: 67.1%

Question: And the viability, T/C (second compound 0.0316 µM, first compound 0.0949 µM)?
Answer: 83%

Question: What about the viability, T/C (second compound 0.0316 µM, first compound 0.3 µM) of the same compound?
Answer: 82.7%

Question: What about the viability, T/C (second compound 0.0316 µM, first compound 0.949 µM) of the same compound?
Answer: 61.2%

Question: What about the viability, T/C (second compound 0.0316 µM, first compound 3 µM) of the same compound?
Answer: 58.4%

Question: And the viability, T/C (second compound 0.1 µM, first compound 0.00949 µM)?
Answer: 79.9%

Question: What about the viability, T/C (second compound 0.1 µM, first compound 0.03 µM) of the same compound?
Answer: 74.5%

Question: And the viability, T/C (second compound 0.1 µM, first compound 0.0949 µM)?
Answer: 73.3%

Question: What about the viability, T/C (second compound 0.1 µM, first compound 0.3 µM) of the same compound?
Answer: 85.1%

Question: And the viability, T/C (second compound 0.1 µM, first compound 0.949 µM)?
Answer: 67.9%

Question: What about the viability, T/C (second compound 0.1 µM, first compound 3 µM) of the same compound?
Answer: 45.4%

Question: What about the viability, T/C (second compound 0.316 µM, first compound 0.00949 µM) of the same compound?
Answer: 66.9%

Question: And the viability, T/C (second compound 0.316 µM, first compound 0.03 µM)?
Answer: 68.1%

Question: What about the viability, T/C (second compound 0.316 µM, first compound 0.0949 µM) of the same compound?
Answer: 65.2%

Question: What about the viability, T/C (second compound 0.316 µM, first compound 0.3 µM) of the same compound?
Answer: 68.3%

Question: What about the viability, T/C (second compound 0.316 µM, first compound 0.949 µM) of the same compound?
Answer: 55.7%

Question: And the viability, T/C (second compound 0.316 µM, first compound 3 µM)?
Answer: 37.5%

Question: And the viability, T/C (second compound 1 µM, first compound 0.00949 µM)?
Answer: 61.7%

Question: What about the viability, T/C (second compound 1 µM, first compound 0.03 µM) of the same compound?
Answer: 50.1%

Question: And the viability, T/C (second compound 1 µM, first compound 0.0949 µM)?
Answer: 51%

Question: And the viability, T/C (second compound 1 µM, first compound 0.3 µM)?
Answer: 47.6%

Question: And the viability, T/C (second compound 1 µM, first compound 0.949 µM)?
Answer: 50.1%

Question: What about the viability, T/C (second compound 1 µM, first compound 3 µM) of the same compound?
Answer: 28.9%

Question: And the viability, T/C (second compound 3.16 µM, first compound 0.00949 µM)?
Answer: 45.8%

Question: And the viability, T/C (second compound 3.16 µM, first compound 0.03 µM)?
Answer: 45.6%

Question: And the viability, T/C (second compound 3.16 µM, first compound 0.0949 µM)?
Answer: 32.2%

Question: And the viability, T/C (second compound 3.16 µM, first compound 0.3 µM)?
Answer: 35.8%

Question: What about the viability, T/C (second compound 3.16 µM, first compound 0.949 µM) of the same compound?
Answer: 25.8%

Question: And the viability, T/C (second compound 3.16 µM, first compound 3 µM)?
Answer: 13.8%

Question: And the viability, T/C (second compound 10 µM, first compound 0.00949 µM)?
Answer: 26.7%

Question: What about the viability, T/C (second compound 10 µM, first compound 0.03 µM) of the same compound?
Answer: 29.4%

Question: And the viability, T/C (second compound 10 µM, first compound 0.0949 µM)?
Answer: 25.8%

Question: And the viability, T/C (second compound 10 µM, first compound 0.3 µM)?
Answer: 19.4%

Question: And the viability, T/C (second compound 10 µM, first compound 0.949 µM)?
Answer: 14.2%

Question: And the viability, T/C (second compound 10 µM, first compound 3 µM)?
Answer: 5.98%
